For test [1], the system named is A549 (non-small cell lung cancer). The test can be described thus: Transplanted tumor in nude mice, A549 model. The test is classed as in vivo, nude mice (BALB/c). From the text: (§1) Furthermore, more pharmacological models of tumor cell lines in nude mice were utilized to validate the inhibitory effects of compound Ie. The test method was specifically described as follows: H1975, A549, HCC827, A431, N87, MDA-MD-468 and CAL27 tumor cells respectively were inoculated into nude mice (BALB/c, male, 5-6 weeks of age), and when the mean tumor volume reaches 150 mm^3 mice was randomized into groups. The H1975 tumor model in nude mice includes one positive control group and three dosage groups of compound Ie (6.7 mg/kg/day, 13.4 mg/kg/day, and 20.1 mg/kg/day. The A549 tumor model in nude mice includes one positive control group, two dosage groups of compound Ie (10 mg/kg/day, 20 mg/kg/day), and one dosage group of Docetaxel (12 mg/kg/day). The HCC827 tumor model in nude mice includes one positive control group, two dosage groups of compound Ie (0.5 mg/kg/day, 2.5 mg/kg/day), and one dosage group of Erlotinib (12.5 mg/kg/day). The A431 tumor model in nude mice includes one positive control group, two dosage groups of compound Ie (2.5 mg/kg/day, 5 mg/kg/day), and one dosage group of Erlotinib (50 mg/kg/day). […] The tumor size and body weight of nude mice were recorded twice weekly from the first day of administration. The tumor volume was calculated using formula (1×w^2), wherein 1 and w respectively represents the maximum and minimum size in each measurement. […]

In test [2] the test system is MDA-MD-468 (breast cancer). Nature of the test: Transplanted tumor in nude mice, MDA-MD-468 model. The test is classed as in vivo, nude mice (BALB/c).
Source text: as §1

In test [3] the target is EGFR (Homo sapiens, UniProt P00533). Nature of the test: Caliper Mobility Shift Assay, inhibition of EGFR kinase activity. The test is classed as biochemical.
Chain of EGFR (P00533 25-1210): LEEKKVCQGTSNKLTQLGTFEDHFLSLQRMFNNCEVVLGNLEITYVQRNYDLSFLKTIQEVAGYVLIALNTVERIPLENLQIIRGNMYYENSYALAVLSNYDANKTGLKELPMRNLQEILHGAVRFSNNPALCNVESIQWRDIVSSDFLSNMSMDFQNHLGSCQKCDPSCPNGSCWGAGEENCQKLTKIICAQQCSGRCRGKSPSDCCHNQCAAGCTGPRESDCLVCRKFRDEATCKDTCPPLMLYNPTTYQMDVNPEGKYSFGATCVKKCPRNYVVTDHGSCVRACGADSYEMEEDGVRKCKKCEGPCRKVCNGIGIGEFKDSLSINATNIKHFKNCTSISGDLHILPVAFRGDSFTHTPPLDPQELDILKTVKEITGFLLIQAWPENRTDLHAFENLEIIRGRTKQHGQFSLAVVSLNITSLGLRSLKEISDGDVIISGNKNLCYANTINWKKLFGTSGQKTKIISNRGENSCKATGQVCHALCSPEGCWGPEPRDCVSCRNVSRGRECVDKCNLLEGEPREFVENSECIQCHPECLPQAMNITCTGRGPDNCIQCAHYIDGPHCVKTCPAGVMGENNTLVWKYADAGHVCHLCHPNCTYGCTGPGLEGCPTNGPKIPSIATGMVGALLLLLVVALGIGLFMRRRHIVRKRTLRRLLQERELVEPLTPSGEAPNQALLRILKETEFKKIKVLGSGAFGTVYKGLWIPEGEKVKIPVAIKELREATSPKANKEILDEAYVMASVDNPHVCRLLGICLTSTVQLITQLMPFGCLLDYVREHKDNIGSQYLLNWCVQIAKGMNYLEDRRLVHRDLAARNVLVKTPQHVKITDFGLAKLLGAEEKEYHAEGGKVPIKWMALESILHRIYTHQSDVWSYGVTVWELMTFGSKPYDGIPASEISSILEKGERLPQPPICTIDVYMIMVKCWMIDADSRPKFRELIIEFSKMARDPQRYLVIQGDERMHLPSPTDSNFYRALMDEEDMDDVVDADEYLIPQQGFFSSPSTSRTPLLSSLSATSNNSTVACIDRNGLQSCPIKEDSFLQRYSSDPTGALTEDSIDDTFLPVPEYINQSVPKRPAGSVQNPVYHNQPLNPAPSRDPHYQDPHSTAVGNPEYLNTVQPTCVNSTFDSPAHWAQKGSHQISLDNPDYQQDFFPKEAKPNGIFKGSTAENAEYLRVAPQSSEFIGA
Test [4] addresses HER2 (Homo sapiens, UniProt P04626). Nature of the test: Caliper Mobility Shift Assay, inhibition of HER2 kinase activity. The test is classed as biochemical.
In test [5] the test system is HCC827 (non-small cell lung cancer). The test can be described thus: Transplanted tumor in nude mice, HCC827 model. The test is classed as in vivo, nude mice (BALB/c).
Source text: as §1

Chain of HER2 (P04626 23-1255): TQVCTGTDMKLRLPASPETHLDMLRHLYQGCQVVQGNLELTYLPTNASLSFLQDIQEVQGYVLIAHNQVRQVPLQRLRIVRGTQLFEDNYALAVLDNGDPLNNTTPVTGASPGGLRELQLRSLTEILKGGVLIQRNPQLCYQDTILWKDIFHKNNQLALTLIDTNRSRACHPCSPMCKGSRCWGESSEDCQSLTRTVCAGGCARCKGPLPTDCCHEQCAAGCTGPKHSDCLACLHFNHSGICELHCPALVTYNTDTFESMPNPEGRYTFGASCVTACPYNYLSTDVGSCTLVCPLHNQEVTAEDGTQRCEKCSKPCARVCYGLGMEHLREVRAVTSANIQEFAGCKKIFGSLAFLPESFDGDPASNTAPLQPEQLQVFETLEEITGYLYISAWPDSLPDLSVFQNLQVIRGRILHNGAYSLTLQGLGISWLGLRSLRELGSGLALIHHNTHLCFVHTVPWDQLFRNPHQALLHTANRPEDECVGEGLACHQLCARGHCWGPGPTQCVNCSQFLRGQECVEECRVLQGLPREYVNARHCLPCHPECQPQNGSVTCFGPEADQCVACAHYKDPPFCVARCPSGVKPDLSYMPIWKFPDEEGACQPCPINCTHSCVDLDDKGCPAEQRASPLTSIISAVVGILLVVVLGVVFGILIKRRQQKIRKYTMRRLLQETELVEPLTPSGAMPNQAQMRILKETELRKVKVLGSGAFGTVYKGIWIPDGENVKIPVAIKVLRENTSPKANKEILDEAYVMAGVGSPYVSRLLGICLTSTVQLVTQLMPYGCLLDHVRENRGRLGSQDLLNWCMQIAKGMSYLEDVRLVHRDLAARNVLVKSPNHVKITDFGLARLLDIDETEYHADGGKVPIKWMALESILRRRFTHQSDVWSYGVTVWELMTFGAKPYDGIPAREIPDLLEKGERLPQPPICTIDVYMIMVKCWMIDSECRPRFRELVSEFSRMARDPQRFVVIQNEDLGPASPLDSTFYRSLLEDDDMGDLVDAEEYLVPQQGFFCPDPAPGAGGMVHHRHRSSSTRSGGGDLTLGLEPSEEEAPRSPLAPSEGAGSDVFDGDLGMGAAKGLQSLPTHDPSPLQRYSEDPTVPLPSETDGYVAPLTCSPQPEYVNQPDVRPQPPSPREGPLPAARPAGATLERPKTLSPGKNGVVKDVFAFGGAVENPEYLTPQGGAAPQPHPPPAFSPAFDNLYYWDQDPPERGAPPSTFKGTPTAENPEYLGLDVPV

Consider `CN(C)C/C=C/C(=O)Nc1cc2c(Nc3ccc(F)c(Cl)c3)ncnc2cc1OC(F)F` [Compound Ie], for which the “inhibitory and therapeutic effects on A549 tumor model” value in test [1] (10, 20 mg/kg/day orally for 21 days) is “strong inhibitory effects and therapeutic effects”. The “inhibitory effects on tumor cell growth compared with other drugs, A549 model” value in test [1] (versus Docetaxel (12 mg/kg/day)) is on record as “stronger inhibitory effects”. Besides, in test [2] (5, 10 mg/kg/day orally for 21 days), the “inhibitory and therapeutic effects on MDA-MD-468 tumor model” value is “strong inhibitory effects and therapeutic effects”. In addition, in test [2] (versus Docetaxel (12 mg/kg/week) and Afatinib (30 mg/kg/day)), the “inhibitory effects on tumor cell growth compared with other drugs, MDA-MD-468 model” value is recorded as “stronger inhibitory effects”. In test [3], the IC50 was 0.4 nM; the “inhibitory effect on EGFR kinases relative to Afatinib, Neratinib and Gefitinib” value is reported as “over two times”. For the same molecule, in test [4], the concentration for half-maximal inhibition (IC50) came out at 11.7 nM. The “inhibitory and therapeutic effects on HCC827 tumor model” value in test [5] (0.5, 2.5 mg/kg/day orally for 21 days) is “strong inhibitory effects and therapeutic effects”. In test [5] (versus Erlotinib (12.5 mg/kg/day)), the “inhibitory effects on tumor cell growth compared with other drugs, HCC827 model” value is reported as “stronger inhibitory effects”.

A word on the IC50: it is the midpoint of a concentration-inhibition curve.

The values above are taken from patent US20150065709A1, “Aminoquinazoline Derivative And Use Thereof In Preparing Anti-Malignant Tumor Medicament” (METABOMICS, INC, priority 2012, published 2015).
